Experimental data taken from patent publication US20250270172A1, “Pyrimidine Derivatives As Modulators of the 5-HT2A Serotonin Receptor Useful For The Treatment of Disorders Related Thereto” (Arena Pharmaceuticals, Inc., priority 2020, published 2025).

Experiments:
[1] = target: T1, 5-HT2A (Homo sapiens (Human), UniProt P28223); assay: Radioligand binding assay, [^3H]5-HT competition, 5-HT2A; settings: [^3H]5-HT radioligand, membranes of HEK293 cells expressing recombinant 5-HT2A; Ki from IC50 by Cheng-Prusoff; read-out: 5-HT2A serotonin binding Ki value
[2] = target: 5-HT2B (Homo sapiens (Human), UniProt P41595); assay: HTRF IP-One antagonist assay, 5-HT2B; assay type: cell-based; settings: HEK293 cells stably expressing receptor, inositol phosphate accumulation, 80 nM 5-HT in Assay Buffer;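 also: clonal HEK293 line with low 5-HT2B expression (estimated 150-200 fmol/mg by radioligand binding), IP-One HTRF readout, 10-point curves from 10 µM in 5-fold steps, triplicate points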
[3] = target: 5-HT2C (Homo sapiens (Human), UniProt P28335); assay: HTRF IP-One antagonist assay, 5-HT2C; assay type: cell-based; settings: HEK293 cells stably expressing receptor, inositol phosphate accumulation, 80 nM 5-HT in Assay Buffer;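 also: clonal HEK293 line with low 5-HT2C density (10–20 fmol/mg), HTRF detection of IP-One, 10-point dose curves from 10 µM in 5-fold steps, triplicate points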
[4] = target: T1, 5-HT2A; assay: HTRF IP-One antagonist assay, 5-HT2A; assay type: cell-based; settings: HEK293 cells stably expressing receptor, inositol phosphate accumulation, 80 nM 5-HT in Assay Buffer;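 also: clonal line with low receptor density (about 50–70 fmol/mg), 10-point dose-response from 10 µM in 5-fold steps, HTRF detection after 1 hr, triplicate points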

Chain of 5-HT2C (P28335 33-458): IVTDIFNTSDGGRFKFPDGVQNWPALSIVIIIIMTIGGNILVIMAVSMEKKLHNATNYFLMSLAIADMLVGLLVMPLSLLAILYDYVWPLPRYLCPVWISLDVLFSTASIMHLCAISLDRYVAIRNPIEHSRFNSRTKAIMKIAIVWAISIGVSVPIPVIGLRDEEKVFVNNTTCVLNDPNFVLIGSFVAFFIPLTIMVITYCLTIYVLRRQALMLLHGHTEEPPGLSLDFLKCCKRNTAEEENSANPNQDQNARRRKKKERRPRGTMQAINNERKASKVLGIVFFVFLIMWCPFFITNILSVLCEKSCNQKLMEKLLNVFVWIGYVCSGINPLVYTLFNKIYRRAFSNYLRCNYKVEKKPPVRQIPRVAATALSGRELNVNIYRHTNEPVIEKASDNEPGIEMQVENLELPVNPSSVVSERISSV
T1 sequence (P28223 whole entry): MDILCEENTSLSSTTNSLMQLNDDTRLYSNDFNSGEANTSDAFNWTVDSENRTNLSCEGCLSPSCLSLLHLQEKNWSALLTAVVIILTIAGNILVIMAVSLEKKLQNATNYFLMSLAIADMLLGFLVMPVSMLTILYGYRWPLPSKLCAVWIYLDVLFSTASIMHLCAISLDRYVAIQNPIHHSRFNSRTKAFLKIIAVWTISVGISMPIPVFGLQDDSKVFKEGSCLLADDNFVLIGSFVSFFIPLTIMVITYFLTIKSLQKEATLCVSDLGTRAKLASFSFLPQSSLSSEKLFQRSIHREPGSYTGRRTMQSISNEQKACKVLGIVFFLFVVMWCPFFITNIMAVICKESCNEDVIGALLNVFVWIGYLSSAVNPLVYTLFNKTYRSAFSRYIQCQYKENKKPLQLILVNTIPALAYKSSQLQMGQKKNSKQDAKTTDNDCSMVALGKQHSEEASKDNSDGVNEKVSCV
Chain of 5-HT2B (P41595 whole entry): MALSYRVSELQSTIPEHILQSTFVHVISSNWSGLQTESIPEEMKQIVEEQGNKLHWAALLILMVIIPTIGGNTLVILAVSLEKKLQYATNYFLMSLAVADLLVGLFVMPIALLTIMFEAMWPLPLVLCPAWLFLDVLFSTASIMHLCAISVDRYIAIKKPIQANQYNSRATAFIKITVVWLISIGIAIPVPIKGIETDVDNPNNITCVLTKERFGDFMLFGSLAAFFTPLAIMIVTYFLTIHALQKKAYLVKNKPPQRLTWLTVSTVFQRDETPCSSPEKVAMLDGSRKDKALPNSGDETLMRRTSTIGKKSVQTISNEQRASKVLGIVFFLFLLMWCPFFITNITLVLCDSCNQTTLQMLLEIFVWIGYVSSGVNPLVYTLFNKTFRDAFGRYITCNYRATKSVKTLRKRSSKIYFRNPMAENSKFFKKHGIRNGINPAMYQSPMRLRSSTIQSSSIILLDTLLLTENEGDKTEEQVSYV

SMILES: Cc1ncnc(C)c1-c1cc(NC(=O)c2ccnn2C)ccc1OCCN1CCCC1 [Compound 202, N-(3-(4,6-dimethylpyrimidin-5-yl)-4-(2-(pyrrolidin-1-yl)ethoxy)phenyl)-1-methyl-1H-pyrazole-5-carboxamide]
- Ki [1]: 0.00525 µM
- IC50 [2]: 100 µM
- IC50 [3]: 100 µM
- IC50 [4]: 0.00635 µM

SMILES: COc1ccc(C(=O)Nc2ccc(OCCN3CCC3)c(-c3c(C)ncnc3C)c2)cc1 [Compound 318, N-(4-(2-(azetidin-1-yl)ethoxy)-3-(4,6-dimethylpyrimidin-5-yl)phenyl)-4-methoxybenzamide]
- Ki [1]: 0.00409 µM
- IC50 [2]: 4.5 µM
- IC50 [3]: 100 µM
- IC50 [4]: 0.0168 µM

SMILES: COc1ccc(CC(=O)Nc2ccc(OCCN3CCCC3)c(-c3c(C)ncnc3C)c2)cc1 [Compound 276, N-(3-(4,6-dimethylpyrimidin-5-yl)-4-(2-(pyrrolidin-1-yl)ethoxy)phenyl)-2-(4-methoxyphenyl)acetamide]
- Ki [1]: 0.000843 µM
- IC50 [2]: 100 µM
- IC50 [3]: 100 µM
- IC50 [4]: 0.00307 µM
